Patent publication US7767238B2, “Beverage composition and method of preventing degradation of vitamins in beverages” (PepsiCo, Inc., priority 2005, dated 2010)

Tests used:
[1] = Vitamin A Palmitate remaining in clear lemon-lime CSD with Vitamin C and EDTA, clear glass, store fluorescent light (Example 2); format: physicochemical; details: 100 ppm stabilizer, start 2000 IU, one week fluorescent light, Light control 548, Dark control 1870
Protocol: (§1) A clear lemon-lime (L/L) carbonated soft drink (CSD) with Vitamin C and ethylene-diaminetetraacetic acid (EDTA) was prepared. Seven samples of the carbonated soft drink were prepared each containing 2500 IU of Vitamin A Palmitate which can be obtained from Roche and the amount of rutin, SanMelin or blueberry leaves extract indicated in Table 8. All samples were packaged in clear glass containers. The Dark and Light samples were each free of rutin, SanMelin or blueberry leaves extract. The Dark sample was shielded from light. All the other samples, including the Light sample were exposed to typical store fluorescent light. The values in the table were all measured at one week.
Example 2 differed from Example 1 in that the starting amount of Vitamin A Palmitate was 2000 IU.

[2] = Vitamin A Palmitate remaining in non-carbonated pink lemonade 5% juice, PET bottle, store fluorescent light (Example 3); format: physicochemical; details: 66 ppm stabilizer, start 3500 IU, one week fluorescent light, Light control 737, Dark control 3215
Protocol: as §1
A non-carbonated pink lemonade beverage composed of 5% juice was prepared. Seven samples like the ones in Examples 1 and 2 were prepared except that the starting amount of Vitamin A Palmitate was 3500 IU and the samples were packaged in PET containers.

[3] = Vitamin A Palmitate remaining in clear lemon-lime CSD with Vitamin C and EDTA, clear glass, store fluorescent light (Example 1); format: physicochemical; details: start 2500 IU, one week fluorescent light, Light control 576, Dark control 2300
Protocol: as §1

[4] = Vitamin stabilization ability, observed rank order; details: more hydroxyl groups on the aryl rings enhance vitamin stabilization
[5] = Vitamin A remaining in fruit juice in 20 oz. PET bottle under store fluorescent light; format: physicochemical; details: freshly prepared 3500 IU fruit juice, typical store fluorescent light, one week, no stabilizer

## C[C@@H]1O[C@@H](OC[C@H]2O[C@@H](Oc3c(-c4ccc(O)c(O)c4)oc4cc(O)cc(O)c4c3=O)[C@H](O)[C@@H](O)[C@@H]2O)[C@H](O)[C@H](O)[C@H]1O [Rutin, rutin]
[1]
  IU of Vitamin A Palmitate: 856 IU
[2]
  IU of Vitamin A Palmitate: 1824 IU
[3]; 33 ppm stabilizer
  IU of Vitamin A Palmitate: 878 IU
[3]; 66 ppm stabilizer
  IU of Vitamin A Palmitate: 1215 IU

## O=C(O)/C=C/c1ccc(O)c(O)c1 [caffeic acid]
[4]
  vitamin stabilization ability (rank order): caffeic acid (2 hydroxyl groups)>ferulic acid>coumaric acid>cinnamic acid

## O=C(O)C=Cc1ccccc1 [cinnamic acid]
[4]
  vitamin stabilization ability (rank order): caffeic acid (2 hydroxyl groups)>ferulic acid>coumaric acid>cinnamic acid

## O=C(O)/C=C/c1ccc(O)cc1 [coumaric acid]
[4]
  vitamin stabilization ability (rank order): caffeic acid (2 hydroxyl groups)>ferulic acid>coumaric acid>cinnamic acid

## COc1cc(/C=C/C(=O)O)ccc1O [ferulic acid]
[4]
  vitamin stabilization ability (rank order): caffeic acid (2 hydroxyl groups)>ferulic acid>coumaric acid>cinnamic acid

## Vitamin A
[5]
  remaining Vitamin A content: approximately 1000 IU
